Series [1] can be described thus: Cytotoxicity against BALB/c mouse peritoneal macrophages assessed as reduction in cell viability incubated for 24 hrs by MTT assay. It counts as cell-based, Peritoneal macrophage.
The test system of series [2] is Leishmania amazonensis. Put plainly: Antileishmanial activity against Leishmania amazonensis (MHOM/BR/76/MA-76) promastigotes assessed as reduction in parasite growth incubated for 24 hrs by MTT assay. The format is functional, organism-based. The note with it: MHOM/BR/76/MA-76, 24 h.
Series [3] in a line: Selectivity index, ratio of CC50 for cytotoxicity against BALB/c mouse peritoneal macrophages to IC50 for antileishmanial activity against Leishmania amazonensis (MHOM/BR/76/MA-76) promastigotes. To be noted: read-out: Ratio CC50/IC50. The format is toxicity.
Series [4] in a line: Cytotoxicity against human CCD-1072Sk cells assessed as reduction in cell viability at <400 uM measured after 24 hrs by MTT assay. It counts as cell-based.
Series [5] concerns Leishmania amazonensis. Put plainly: Induction of morphological changes in Leishmania amazonensis (MHOM/BR/76/MA-76) promastigotes assessed as formation of membrane profiles near the flagellar pocket at IC50 incubated for 24 hrs by transmission electron microscopy analysis. It counts as functional, organism-based.
Series [6] relates to Leishmania amazonensis. Put plainly: Antileishmanial activity against Leishmania amazonensis (MHOM/BR/76/MA-76) intracellular amastigotes infected in BALB/c mouse peritoneal macrophages assessed as reduction in parasite growth incubated for 24 hrs by Giemsa's azur-eosin-methyle blue staining based light microscopy analysis. The format is functional, organism-based. The note with it: MHOM/BR/76/MA-76, Peritoneal macrophage.

Series [7] is described as follows: Selectivity index, ratio of CC50 for cytotoxicity against BALB/c mouse peritoneal macrophage to IC50 for antileishmanial activity against Leishmania amazonensis (MHOM/BR/76/MA-76) intracellular amastigotes infected in BALB/c mouse peritoneal macrophages. It counts as toxicity, cell-based. To be noted: read-out: Ratio CC50/IC50.
For series [8], the system named is Leishmania amazonensis. As to the kind of experiment: Antileishmanial activity against Leishmania amazonensis (MHOM/BR/76/MA-76) promastigotes assessed as upward shift in concentration response curves of parasite viability incubated for 24 hrs by MTT assay. The format is functional, organism-based. In general terms: Tetrazolium assays rely on reduction of a dye to a coloured formazan, in cell work by metabolically active cells.

The subject of series [9] is Leishmania amazonensis. As to the kind of experiment: Antileishmanial activity against Leishmania amazonensis (MHOM/BR/76/MA-76) intracellular amastigotes infected in BALB/c mouse peritoneal macrophages assessed as upward shift in concentration response curves of parasite viability incubated for 24 hrs by Giemsa's azur-eosin-methyle blue staining based light microscopy analysis. It counts as functional, organism-based. To be noted: Peritoneal macrophage.

For series [10], the system named is Leishmania amazonensis. Put plainly: Antileishmanial activity against Leishmania amazonensis (MHOM/BR/76/MA-76) intracellular amastigotes infected in BALB/c mouse peritoneal macrophages assessed as decrease in number of amastigotes per 100 cells at 40 uM incubated for 24 hrs by Giemsa's azur-eosin-methyle blue staining based light microscopy analysis. It counts as functional, organism-based. To be noted: Peritoneal macrophage.

Series [11] has as its system Leishmania amazonensis. Put plainly: Antileishmanial activity against Leishmania amazonensis (MHOM/BR/76/MA-76) intracellular amastigotes infected in BALB/c mouse peritoneal macrophages assessed as decrease in number of amastigotes per infected cells at up to 40 uM incubated for 24 hrs by Giemsa's azur-eosin-methyle blue staining based light microscopy analysis. The format is functional, organism-based. To be noted: Peritoneal macrophage.

For series [12], the system named is Leishmania amazonensis. As to the kind of experiment: Antileishmanial activity against Leishmania amazonensis (MHOM/BR/76/MA-76) intracellular amastigotes infected in BALB/c mouse peritoneal macrophages assessed as low amastigote mean at 40 uM incubated for 24 hrs by Giemsa's azur-eosin-methyle blue staining based light microscopy analysis. It counts as functional, organism-based. To be noted: Peritoneal macrophage.

In series [13] the test system is Leishmania amazonensis. Put plainly: Induction of morphological changes in Leishmania amazonensis (MHOM/BR/76/MA-76) promastigotes assessed as lipid inclusions at IC50 incubated for 24 hrs by transmission electron microscopy analysis. The format is functional, organism-based.
Series [14] relates to Leishmania amazonensis. Put plainly: Induction of morphological changes in Leishmania amazonensis (MHOM/BR/76/MA-76) promastigotes assessed as formation of small vesicles surrounded by a membrane in cytoplasm at IC50 incubated for 24 hrs by transmission electron microscopy analysis. It counts as functional, organism-based.
Series [15] is described as follows: Cytotoxicity against human CCD-1072Sk cells assessed as reduction in cell viability measured after 24 hrs by MTT assay. The format is cell-based.
For series [16], the system named is Leishmania amazonensis. Put plainly: Antileishmanial activity against Leishmania amazonensis (MHOM/BR/76/MA-76) intracellular amastigotes infected in BALB/c mouse peritoneal macrophages assessed as decrease in number of amastigotes per 100 cells at 10 to 40 uM incubated for 24 hrs by Giemsa's azur-eosin-methyle blue staining based light microscopy analysis. It counts as functional, organism-based. To be noted: Peritoneal macrophage, dose 10-40 µM.

For series [17], the system named is Leishmania amazonensis. As to the kind of experiment: Antileishmanial activity against Leishmania amazonensis (MHOM/BR/76/MA-76) intracellular amastigotes infected in BALB/c mouse peritoneal macrophages assessed as decrease in number of amastigotes per infected cells at 20 to 40 uM incubated for 24 hrs by Giemsa's azur-eosin-methyle blue staining based light microscopy analysis. The format is functional, organism-based. The note with it: Peritoneal macrophage, dose 20-40 µM.

In series [18] the test system is Leishmania amazonensis. Put plainly: Antileishmanial activity against Leishmania amazonensis (MHOM/BR/76/MA-76) intracellular amastigotes infected in BALB/c mouse peritoneal macrophages assessed as low amastigote mean at 5 to 40 uM incubated for 24 hrs by Giemsa's azur-eosin-methyle blue staining based light microscopy analysis. It counts as functional, organism-based. To be noted: Peritoneal macrophage, dose 5-40 µM.

pIC50: −log10 of the molar value. The source made the active and inactive calls. The calls are words filed in the database; no cut-off is given here. Where only a bound is given, the exact number is not on record here.

By CC50 is commonly meant the concentration giving 50% cytotoxicity. For orientation: pIC50 means the negative decadic logarithm of the IC50, by convention in mol/L.

On to `O=[N+]([O-])c1ccccc1C(O)c1cn(-c2ccc(Br)cc2)nn1` (stereo unspecified), for which the CC50 at 24 h in series [1] is over 400 µM. Moreover, the pIC50 in the series with Leishmania amazonensis [2] was 3.72. The selectivity ratio in series [3] is over 2.1. Moreover, in series [4], the Activity entry is given as “Non-Toxic”.
Turning to `CC(=O)c1ccc(-n2cc(C(O)c3ccccc3-c3ccccc3)nn2)cc1` (stereo unspecified), the 50% cytotoxic concentration (CC50) at 24 h in [1] turned out to be 234 µM. For the same compound, the pIC50 in the series with Leishmania amazonensis [2] is 4.25. The selectivity ratio in [3] came to 4.12. Besides, the Activity result in series [4] is recorded as “Non-Toxic”.
The like results for `COC(=O)c1ccc(-n2cc(C(O)c3cccnc3-c3ccccc3)nn2)cc1` (stereo unspecified) were, in that order, over 400 µM, 4.02, over 4.17 and “Non-Toxic”.
Turning to `COC(=O)c1ccc(-n2cc(C(O)c3ccccc3Br)nn2)cc1` (stereo unspecified), the outcome in the series with Leishmania amazonensis [5], with Leishmania amazonensis [8], in the series on Leishmania amazonensis [9], in the series on Leishmania amazonensis [10], with Leishmania amazonensis [12] and with Leishmania amazonensis [13] was Active. In the series on Leishmania amazonensis [14], the result was Active. Further, the CC50 at 24 h in series [1] came to 297 µM. For the same compound, the figures for the negative logarithm of the IC50 (pIC50) with Leishmania amazonensis [2] and with Leishmania amazonensis [6] were 4.56 and 4.43, respectively. Further, the selectivity ratio came to 10.7 in series [3] and 8.03 in series [7]. In series [4], the Activity entry is on record as “Non-Toxic”. Also, the result in the series with Leishmania amazonensis [11] was inactive.
In the case of `CCCCCCCCCCCCCCCCOP(=O)([O-])OCC[N+](C)(C)C` [MILTEFOSINE], the CC50 at 24 h in series [15] worked out at 191 µM; in [1] it was 169 µM. In addition, the figures for the pIC50 with Leishmania amazonensis [2] and in the series on Leishmania amazonensis [6] were 5.10 and 5.29, respectively. Besides, the selectivity ratio in [3] worked out at 21.1; in series [7], 33.2. The result in the series on Leishmania amazonensis [8], in the series with Leishmania amazonensis [9], with Leishmania amazonensis [16], in the series on Leishmania amazonensis [17] and with Leishmania amazonensis [18] was Active.
Turning to `OC(c1cn(-c2ccc(Br)cc2)nn1)c1ccccc1Br` (stereo unspecified), the cytotoxic concentration (CC50) at 24 h in series [1] was 313 µM. Also, the pIC50 in the series with Leishmania amazonensis [2] was under 3.70. Also, in series [3], the selectivity ratio was under 1.56. Besides, the Activity result in series [4] is listed as “Non-Toxic”.
With `OC(c1ccccc1)c1cn(-c2ccc(Br)cc2)nn1` (stereo unspecified), the CC50 at 24 h in series [1] was over 400 µM. In the series with Leishmania amazonensis [2], the pIC50 was under 3.70. Moreover, in [3], the selectivity ratio is over 2. In addition, in [4], the Activity entry is on record as “Non-Toxic”.
For `OC(c1ccc(Br)cc1)c1cn(-c2ccc(F)cc2)nn1` (stereo unspecified), in series [1], the CC50 at 24 h was determined as 182 µM. For the same compound, the pIC50 with Leishmania amazonensis [2] is 4.34. In addition, in series [3], the selectivity ratio was determined as 4. In addition, the Activity entry in series [4] is reported as “Non-Toxic”.
Turning to `OC(c1cn(-c2ccc(Br)cc2)nn1)c1ccccc1F` (stereo unspecified), in series [1], the cytotoxic concentration (CC50) at 24 h is over 400 µM. For the same compound, the pIC50 in the series with Leishmania amazonensis [2] is 3.96. In addition, in series [3], the selectivity ratio is over 3.62. Further, the Activity result in series [4] was “Non-Toxic”.
`O=c1ccc2cc(-n3cc(C(O)c4ccccc4-c4ccccc4)nn3)ccc2o1` (stereo unspecified): the CC50 at 24 h in series [1] worked out at 141 µM. The pIC50 in the series on Leishmania amazonensis [2] was under 3.70. Also, the selectivity ratio in series [3] was under 0.7. For the same compound, in series [4], the Activity result is on record as “Non-Toxic”.
The like results for `O=c1ccc2cc(-n3cc(C(O)c4ccccc4Br)nn3)ccc2o1` (stereo unspecified) were, in that order, 348 µM, 4.09, 4.27 and “Non-Toxic”.

The values are drawn from ChEMBL document CHEMBL5053500, “Nitric Oxide Induction in Peritoneal Macrophages by a 1,2,3-Triazole Derivative Improves Its Efficacy upon Leishmania amazonensis In Vitro Infection” (J Med Chem, 2021).
